Experimental data: PMC4450297, “Screening Active Compounds from Garcinia Species Native to China Reveals Novel Compounds Targeting the STAT/JAK Signaling Pathway” (BioMed Research International, 2015)
Where two headings read alike, the source gives them in different places.

What was measured:
HCC1395 = assay: Cell panel screen (CellTiter-Glo); assay type: cell-based, human; settings: Homo sapiens, read-out: Percent Inhibition
How it was run: (§1)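 Tested once at 20 μM (final) over 72 h in cells cultured with 10% FBS. Luciferase/ATP luminescence read-out, background-corrected and normalised to vehicle controls.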

BT-549 = assay: Cell panel screen (CellTiter-Glo); assay type: cell-based, human; settings: Homo sapiens, read-out: Percent Inhibition
How it was run: as §1

NCI-H2405 = assay: Cell panel screen (CellTiter-Glo); assay type: cell-based, human; settings: Homo sapiens, read-out: Percent Inhibition
How it was run: as §1

HEC-1-A = assay: Cell panel screen (CellTiter-Glo); assay type: cell-based, human; settings: Homo sapiens, read-out: Percent Inhibition
How it was run: as §1

Bel-7402 = assay: Cell panel screen (CellTiter-Glo); assay type: cell-based, human; settings: Homo sapiens, read-out: Percent Inhibition
How it was run: as §1

A498 = assay: Cell panel screen (CellTiter-Glo); assay type: cell-based, human; settings: Homo sapiens, read-out: Percent Inhibition
How it was run: as §1

CW-2 = assay: Cell panel screen (CellTiter-Glo); assay type: cell-based, human; settings: Homo sapiens, read-out: Percent Inhibition
How it was run: as §1

NCI-H1694 = assay: Cell panel screen (CellTiter-Glo); assay type: cell-based, human; settings: Homo sapiens, read-out: Percent Inhibition
How it was run: as §1

TCCSUP = assay: Cell panel screen (CellTiter-Glo); assay type: cell-based, human; settings: Homo sapiens, TCC-SUP, read-out: Percent Inhibition
How it was run: as §1

MSTO-211-H = assay: Cell panel screen (CellTiter-Glo); assay type: cell-based, human; settings: Homo sapiens, read-out: Percent Inhibition
How it was run: as §1

T47D = assay: Cell panel screen (CellTiter-Glo); assay type: cell-based, human; settings: Homo sapiens, read-out: Percent Inhibition
How it was run: as §1

Panc 03.27 = assay: Cell panel screen (CellTiter-Glo); assay type: cell-based, human; settings: Homo sapiens, read-out: Percent Inhibition
How it was run: as §1

NCI-H28 = assay: Cell panel screen (CellTiter-Glo); assay type: cell-based, human; settings: Homo sapiens, read-out: Percent Inhibition
How it was run: as §1

NCI-H524 = assay: Cell panel screen (CellTiter-Glo); assay type: cell-based, human; settings: Homo sapiens, read-out: Percent Inhibition
How it was run: as §1

HCC1937 = assay: Cell panel screen (CellTiter-Glo); assay type: cell-based, human; settings: Homo sapiens, read-out: Percent Inhibition
How it was run: as §1

NCI-H1623 = assay: Cell panel screen (CellTiter-Glo); assay type: cell-based, human; settings: Homo sapiens, read-out: Percent Inhibition
How it was run: as §1

SW13 = assay: Cell panel screen (CellTiter-Glo); assay type: cell-based, human; settings: Homo sapiens, read-out: Percent Inhibition
How it was run: as §1

Colo 205 = assay: Cell panel screen (CellTiter-Glo); assay type: cell-based, human; settings: Homo sapiens, read-out: Percent Inhibition
How it was run: as §1

NCI-H1770 = assay: Cell panel screen (CellTiter-Glo); assay type: cell-based, human; settings: Homo sapiens, read-out: Percent Inhibition
How it was run: as §1

NCI-H2347 = assay: Cell panel screen (CellTiter-Glo); assay type: cell-based, human; settings: Homo sapiens, read-out: Percent Inhibition
How it was run: as §1

ZR-75-30 = assay: Cell panel screen (CellTiter-Glo); assay type: cell-based, human; settings: Homo sapiens, read-out: Percent Inhibition
How it was run: as §1

T98G = assay: Cell panel screen (CellTiter-Glo); assay type: cell-based, human; settings: Homo sapiens, read-out: Percent Inhibition
How it was run: as §1

ChaGo-K-1 = assay: Cell panel screen (CellTiter-Glo); assay type: cell-based, human; settings: Homo sapiens, read-out: Percent Inhibition
How it was run: as §1

NCI-H1650 cells = assay: Soft-agar colony formation assay; assay type: cell-based; settings: Homo sapiens, 168 h; NCI-H1650 cells in soft agar, one week, Alamar Blue; read-out: IC50, cell colony formation
Protocol: NCI-H1650 cells were plated in soft agar (Takara, Japan) at a density of 4000 cells/well in a 96-well plate. For the base layer, 1.2% agar stock solution was melted in an autoclave, cooled to 40°C in a water bath, and then mixed with RPMI1640 medium to obtain a solution of 0.6% agar in RPMI1640 containing 10% FBS. A cell suspension placed on the top layer was composed of RPMI1640 with 10% FBS and 0.4% agarose in each well. Then, the cells were incubated overnight. Compounds were added into the wells, and the NCI-H1650 cells were incubated for one week. After 7 days, alamar blue was added to the agar plate wells containing NCI-H1650 cell, and the plates were returned to the incubator. The fluorescence intensity (excitation 560 nm, emission 590 nm) was measured after 24 h.

[1] = HCC1395 (Breast), 20 micromolar, 72 hrs
[2] = BT-549 (Breast), 20 micromolar, 72 hrs
[3] = NCI-H2405 (Lung), 20 micromolar, 72 hrs
[4] = HEC-1-A (Uterus), 20 micromolar, 72 hrs
[5] = Bel-7402 (Liver), 20 micromolar, 72 hrs
[6] = A498 (listed under Lung), 20 micromolar, 72 hrs
[7] = CW-2 (Colon), 20 micromolar, 72 hrs
[8] = NCI-H1694 (Lung), 20 micromolar, 72 hrs
[9] = TCCSUP (Urinary bladder), 20 micromolar, 72 hrs
[10] = MSTO-211-H (Lung), 20 micromolar, 72 hrs
[11] = T47D (Breast), 20 micromolar, 72 hrs
[12] = PANC-03-27, Panc 03.27 (Pancreas), 20 micromolar, 72 hrs
[13] = NCI-H28 (Lung), 20 micromolar, 72 hrs
[14] = NCI-H524 (Lung), 20 micromolar, 72 hrs
[15] = HCC1937 (Breast), 20 micromolar, 72 hrs
[16] = NCI-H1623 (Lung), 20 micromolar, 72 hrs
[17] = SW13 (Adrenal gland), 20 micromolar, 72 hrs
[18] = Colo 205, 20 micromolar, 72 hrs
[19] = NCI-H1770 (Lung), 20 micromolar, 72 hrs
[20] = NCI-H2347 (Lung), 20 micromolar, 72 hrs
[21] = ZR-75-30 (Breast), 20 micromolar, 72 hrs
[22] = T98G (Brain), 20 micromolar, 72 hrs
[23] = ChaGo-K-1 (Lung), 20 micromolar, 72 hrs

CC(C)=CCC/C(C)=C/Cc1c(O)c(CC=C(C)C)c2c(c1O)C(=O)C1=C[C@@H]3C[C@H]4C(C)(C)O[C@@](C/C=C(\C)C(=O)O)(C3=O)[C@@]14O2 [GB63]
inhibition at 20 µM (HCC1395; [1]): 99%
inhibition at 20 µM (BT-549; [2]): 99%
inhibition at 20 µM (NCI-H2405; [3]): 99%
inhibition at 20 µM (HEC-1-A; [4]): 99%
inhibition at 20 µM (Bel-7402; [5]): 99%
inhibition at 20 µM (A498; [6]): 98%
inhibition at 20 µM (CW-2; [7]): 99%
inhibition at 20 µM (NCI-H1694; [8]): 100%
inhibition at 20 µM (TCCSUP; [9]): 99%
inhibition at 20 µM (MSTO-211-H; [10]): 99%
inhibition at 20 µM (T47D; [11]): 99%
inhibition at 20 µM (Panc 03.27; [12]): 99%
inhibition at 20 µM (NCI-H28; [13]): 99%
inhibition at 20 µM (NCI-H524; [14]): 98%
inhibition at 20 µM (HCC1937; [15]): 100%
inhibition at 20 µM (NCI-H1623; [16]): 99%
inhibition at 20 µM (SW13; [17]): 99%
inhibition at 20 µM (Colo 205; [18]): 99%
inhibition at 20 µM (NCI-H1770; [19]): 99%
inhibition at 20 µM (NCI-H2347; [20]): 98%
inhibition at 20 µM (ZR-75-30; [21]): 99%
inhibition at 20 µM (T98G; [22]): 99%
inhibition at 20 µM (ChaGo-K-1; [23]): 100%
IC50 (NCI-H1650 cells): 2660 ± 150 nM

CC(C)=CCC/C(C)=C/Cc1c(O)c(CC=C(C)C)c2c(c1O)C(=O)C1=C[C@@H]3C[C@H]4C(C)(C)O[C@@](CC=C(C)C)(C3=O)[C@@]14O2 [GB32]
inhibition at 20 µM (HCC1395; HCC1395, 72 h): 99%
inhibition at 20 µM (BT-549; BT-549, 72 h): 99%
inhibition at 20 µM (NCI-H2405; NCI-H2405, 72 h): 99%
inhibition at 20 µM (HEC-1-A; HEC-1-A, 72 h): 99%
inhibition at 20 µM (Bel-7402; Bel-7402, 72 h): 99%
inhibition at 20 µM (A498; A498, 72 h): 98%
inhibition at 20 µM (CW-2; CW-2, 72 h): 99%
inhibition at 20 µM (NCI-H1694; NCI-H1694, 72 h): 100%
inhibition at 20 µM (TCCSUP; 72 h): 99%
inhibition at 20 µM (MSTO-211-H; MSTO-211H, 72 h): 99%
inhibition at 20 µM (T47D; T47D, 72 h): 99%
inhibition at 20 µM (Panc 03.27; PANC-03-27, 72 h): 99%
inhibition at 20 µM (NCI-H28; NCI-H28, 72 h): 99%
inhibition at 20 µM (NCI-H524; NCI-H524, 72 h): 99%
inhibition at 20 µM (HCC1937; HCC1937, 72 h): 99%
inhibition at 20 µM (NCI-H1623; NCI-H1623, 72 h): 99%
inhibition at 20 µM (SW13; SW13, 72 h): 99%
inhibition at 20 µM (Colo 205; COLO 205, 72 h): 99%
inhibition at 20 µM (NCI-H1770; NCI-H1770, 72 h): 99%
inhibition at 20 µM (NCI-H2347; NCI-H2347, 72 h): 98%
inhibition at 20 µM (ZR-75-30; ZR-75-30, 72 h): 99%
inhibition at 20 µM (T98G; T98G, 72 h): 99%
inhibition at 20 µM (ChaGo-K-1; ChaGo-K-1, 72 h): 99%
IC50 (NCI-H1650 cells): 3130 ± 300 nM

CC(C)=CCC[C@@]1(C)C=Cc2c(O)c3c(c(C/C=C(\C)CO)c2O1)O[C@]12C(=C[C@@H]4C[C@H]1C(C)(C)O[C@@]2(C/C=C(/C)C(=O)O)C4=O)C3=O [GB40, 35-hydroxyepigambogic acid]
inhibition at 20 µM (HCC1395; [1]): 98%
inhibition at 20 µM (BT-549; [2]): 99%
inhibition at 20 µM (NCI-H2405; [3]): 99%
inhibition at 20 µM (HEC-1-A; [4]): 99%
inhibition at 20 µM (Bel-7402; [5]): 99%
inhibition at 20 µM (A498; [6]): 98%
inhibition at 20 µM (CW-2; [7]): 99%
inhibition at 20 µM (NCI-H1694; [8]): 99%
inhibition at 20 µM (TCCSUP; [9]): 99%
inhibition at 20 µM (MSTO-211-H; [10]): 98%
inhibition at 20 µM (T47D; [11]): 99%
inhibition at 20 µM (Panc 03.27; [12]): 99%
inhibition at 20 µM (NCI-H28; [13]): 98%
inhibition at 20 µM (NCI-H524; [14]): 99%
inhibition at 20 µM (HCC1937; [15]): 99%
inhibition at 20 µM (NCI-H1623; [16]): 99%
inhibition at 20 µM (SW13; [17]): 98%
inhibition at 20 µM (Colo 205; [18]): 99%
inhibition at 20 µM (NCI-H1770; [19]): 99%
inhibition at 20 µM (NCI-H2347; [20]): 98%
inhibition at 20 µM (ZR-75-30; [21]): 99%
inhibition at 20 µM (T98G; [22]): 99%
inhibition at 20 µM (ChaGo-K-1; [23]): 98%
IC50 (NCI-H1650 cells): 1070 ± 40 nM
